Data reported in the supplement of paper PMC10307832.

Legend:
Experiment in all cases: relative viability (nuclei count vs DMSO), 5 days (fraction); higher = more cells survive
[1] = compound: C[C@@H](Oc1cc(-c2cnn(C3CCNCC3)c2)cnc1N)c1c(Cl)ccc(F)c1Cl [Crizotinib] + Cc1nc(Nc2ncc(C(=O)Nc3c(C)cccc3Cl)s2)cc(N2CCN(CCO)CC2)n1 [Dasatinib] (partner 0.075 µM)
In short: (§1)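 Cells from lung cancer lines were seeded into 1536-well plates and, one day later, dosed by pin tool. Treatments were either a single drug or a fixed dose of an anchor drug with five library-drug doses (not always all listed) in √10 steps. After 5 days, nuclei were stained in a one-step fixation (final 0.05% Triton X-100, 1% formaldehyde, 1 ug/ml Hoechst) and counted on 4× images, and relative viability is the treated-to-vehicle nuclei ratio, as the median of duplicate plates.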

[2] = compound: O=C(c1cc(Cc2n[nH]c(=O)c3ccccc23)ccc1F)N1CCN(C(=O)C2CC2)CC1 [Olaparib] + Cc1nc(Nc2ncc(C(=O)Nc3c(C)cccc3Cl)s2)cc(N2CCN(CCO)CC2)n1 [Dasatinib] (partner 0.075 µM)
In short: as §1

[3] = compound: O=C(c1cc(Cc2n[nH]c(=O)c3ccccc23)ccc1F)N1CCN(C(=O)C2CC2)CC1 [Olaparib] + CC(=O)c1c(C)c2cnc(Nc3ccc(N4CCNCC4)cn3)nc2n(C2CCCC2)c1=O [Palbociclib] (partner 0.5 µM)
In short: as §1

[4] = compound: O=C(c1cc(Cc2n[nH]c(=O)c3ccccc23)ccc1F)N1CCN(C(=O)C2CC2)CC1 [Olaparib] + CCNC(=O)c1noc(-c2cc(C(C)C)c(O)cc2O)c1-c1ccc(CN2CCOCC2)cc1 [Luminespib] (partner 0.01 µM)
In short: as §1

Cell Line	relative viability ([1]; first compound 0.01 µM)	relative viability ([1]; first compound 0.03162 µM)	relative viability ([1]; first compound 0.1 µM)	relative viability ([1]; first compound 0.3162 µM)	relative viability ([1]; first compound 1 µM)	relative viability ([2]; first compound 0.08 µM)	relative viability ([2]; first compound 0.253 µM)	relative viability ([2]; first compound 2.53 µM)	relative viability ([2]; first compound 8 µM)	relative viability ([3]; first compound 0.08 µM)	relative viability ([3]; first compound 0.253 µM)	relative viability ([3]; first compound 2.53 µM)	relative viability ([3]; first compound 8 µM)	relative viability ([4]; first compound 0.08 µM)	relative viability ([4]; first compound 0.253 µM)	relative viability ([4]; first compound 2.53 µM)	relative viability ([4]; first compound 8 µM)
NCI-H2085	0.209	0.232	0.228	0.282	0.28	0.292	0.225	0.241	0.226	0.559	0.453	0.477	0.459	0.499	0.381	0.427	0.437
NCI-H2087	0.696	0.861	0.797		0.803	1.27	0.621	0.804	0.617	0.282	0.211	0.259	0.217	0.162	0.159	0.199	0.154
NCI-H2126	0.484	0.646	0.569	0.557	0.545	0.728	0.634	0.558	0.606	0.374	0.364	0.343	0.35	1.13	0.797	0.811	0.724
NCI-H2170	0.642	0.506	0.566	0.481	0.624	0.471	0.629	0.47	0.638	0.427	0.395	0.411	0.315	0.735	0.651	0.594	0.5
NCI-H2228	0.459	0.566	0.575	0.26	0.112	0.587	0.495	0.458	0.304	0.792	0.667	0.731	0.452	0.146	0.132	0.145	0.117
NCI-H2342	0.302	0.334	0.303	0.349	0.291	0.293	0.262	0.312	0.293	0.532	0.503	0.471	0.474	0.685	0.561	0.712	0.649
NCI-H2347	0.305	0.272	0.312	0.244	0.25	0.335	0.292	0.293	0.294	0.381	0.431	0.393	0.409	0.43	0.615	0.398	0.259
NCI-H2405	0.244	0.237	0.192	0.217	0.196	0.192	0.181	0.204	0.217	0.577	0.497	0.491	0.496	0.646	0.651	0.685	0.782
NCI-H3122	0.786	0.799	0.836	0.74	0.735	0.463	0.823	0.873	0.696	0.206	0.193	0.194	0.188	0.0823	0.107	0.101	0.0643
PC-3 [JPC-3]	1.07	0.996	1.01	1.02	0.975	1.08	0.902	1.01	0.895	0.531		0.52	0.534	0.832	0.749	0.587	0.592
PC-14	0.286	0.241	0.245	0.201	0.238	0.333	0.231	0.311	0.205	0.614	0.401	0.366	0.212	0.199		0.134	0.156
RERF-LC-KJ	0.751	0.817	0.751	0.81	0.691	0.891	0.81	0.858	0.8	1.17	0.964	1.08	1.02	1.22	1.08	1.23	1
SK-LU-1	0.178	0.16	0.181	0.189	0.159	0.197	0.159	0.181	0.161	0.452	0.346	0.419	0.343	0.228	0.178	0.194	0.199
SK-MES-1	0.385	0.373	0.418	0.312	0.341	0.41	0.323	0.431	0.228	0.376	0.278	0.325	0.254	0.841	0.774	0.727	0.604
SW 900	0.449	0.518	0.763	0.597	0.633	0.57	0.815	0.624	0.615	0.606	0.492	0.595	0.476	0.171	0.17	0.184	0.197
SW 1573	0.352	0.389	0.51	0.449	0.454	0.698	0.456	0.504	0.354	0.468	0.377	0.338	0.252	0.376	0.221	0.204	0.158
UMC-11	0.381	0.468	0.426	0.282	0.502	0.464	0.47	0.452	0.396	0.286		0.317	0.31	1.06	0.855	0.683	0.414
